# Results taken from PubChem BioAssay (NCI).
#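 A five-concentration, 48-hour dose response in 96-well plates underlies each endpoint, interpolated linearly between surrounding concentrations. Abbreviation: GI50, concentration required for 50% inhibition of growth. The concentration for full growth arrest is given as TGI.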
# Legend:
# Assay in all cases: growth of human tumour cells (NCI), 48 h
# ACHN renal = tested on: ACHN renal
# HCC-2998 colon = tested on: HCC-2998 colon
# A498 renal = tested on: A498 renal
# NCI-H226 lung = tested on: NCI-H226 lung
# SW-620 colon = tested on: SW-620 colon
# SNB-19 CNS = tested on: SNB-19 CNS
# LOX IMVI melanoma = tested on: LOX IMVI melanoma
# UACC-257 melanoma = tested on: UACC-257 melanoma
# RXF 393 renal = tested on: RXF 393 renal
# UACC-62 melanoma = tested on: UACC-62 melanoma
# SK-MEL-2 melanoma = tested on: SK-MEL-2 melanoma
# CAKI-1 renal = tested on: CAKI-1 renal
# UO-31 renal = tested on: UO-31 renal
# BT-549 breast = tested on: BT-549 breast
# MCF7 breast = tested on: MCF7 breast
Structure (SMILES),TGI (ACHN renal) [µM],TGI (HCC-2998 colon) [µM],TGI (A498 renal) [µM],TGI (NCI-H226 lung) [µM],TGI (SW-620 colon) [µM],TGI (SNB-19 CNS) [µM],TGI (LOX IMVI melanoma) [µM],TGI (UACC-257 melanoma) [µM],TGI (RXF 393 renal) [µM],TGI (UACC-62 melanoma) [µM],TGI (SK-MEL-2 melanoma) [µM],TGI (CAKI-1 renal) [µM],TGI (UO-31 renal) [µM],TGI (BT-549 breast) [µM],TGI (MCF7 breast) [µM],GI50 (UACC-62 melanoma) [µM]
N#CN=Nc1cc(Cl)c(N=NC#N)cc1Cl,> 100,> 100,> 100,> 100,> 100,> 100,> 100,> 100,> 100,> 100,> 100,,,,,
NC(=O)/N=C(\N)NC(=O)c1ccccc1,> 100,> 100,> 100,> 100,> 100,> 100,> 100,> 100,> 100,> 100,> 100,> 100,> 100,> 100,,
O=C(Sc1c(-c2ccccc2)c(=O)n(-c2ccccc2)c(=S)n1-c1ccccc1)c1ccc(Cl)cc1,> 100,> 100,> 100,> 100,> 100,> 100,> 100,> 100,> 100,> 100,,> 100,,,> 100,
Cc1ccc(SCC(OCn2cnc3c(N)ncnc32)[C@H](C)F)cc1 (some centres not stated),> 100,> 100,,> 100,> 100,> 100,> 100,> 100,,> 100,> 100,> 100,> 100,> 100,> 100,
CC(=O)O[C@H]1CC[C@H]2[C@@H]3CCc4cc(O)c(I)cc4[C@H]3CC[C@]12C,28.1,32.2,,30.7,27.7,32.3,30.2,30,,24.4,37.3,29.7,27.1,29.4,33.8,12
O=C1CN(c2cccc(C(F)(F)F)c2)C(=O)CN1NCNN1CC(=O)N(c2cccc(C(F)(F)F)c2)CC1=O,> 100,> 100,,,> 100,> 100,,> 100,,,,,> 100,,> 100,
CN(C)c1ccc(N=Nc2cccc3ccoc23)cc1,> 100,> 100,> 100,> 100,> 100,> 100,> 100,> 100,> 100,> 100,> 100,> 100,> 74.3,> 100,,
COC(=O)c1cc(C)ccc1/C=C1\Cc2cc(C)c(C)cc2C1=O,> 100,> 100,> 100,> 100,> 100,> 100,> 100,> 100,> 100,> 100,> 100,> 100,> 100,> 100,,
CC1(C)C(O)c2ccccc2OC1N1CCN(C2Oc3ccccc3C(O)C2(C)C)CC1 (configuration not stated),> 100,> 100,> 100,> 100,> 100,> 100,> 100,> 100,> 100,> 100,,> 100,> 100,,> 100,
CC(N)Cc1cccc(C(F)(F)F)c1 (configuration not stated),> 100,> 100,> 100,> 100,> 100,> 100,> 100,> 100,> 100,> 100,> 100,> 100,> 100,,,
COC(=O)CCc1ccc2c(c1)CCC2,> 100,> 100,,> 100,> 100,> 100,> 100,> 100,,> 100,> 100,> 100,> 100,> 100,> 100,
COC(=O)c1cc(Br)c(C(=O)C(Cl)(Cl)Cl)[nH]1,> 100,,> 100,> 100,> 100,> 100,> 100,> 100,> 100,> 100,> 100,> 100,> 100,> 100,,
CCSC(=Nc1ccccc1)SC,> 100,> 100,,> 100,> 100,> 100,> 100,> 100,> 100,> 100,> 100,> 100,> 100,,,
COC(=O)[C@@H]1O[C@]12C(CO[Si](C)(C)C(C)(C)C)OC(n1ccc(=O)[nH]c1=O)C2O[Si](C)(C)C(C)(C)C (some centres not stated),54.1,> 100,,30.7,> 100,> 100,42.5,57.5,,72.7,33.2,72,45.5,47.7,37.2,
CC(=O)c1ccc(-c2oc(-c3ccccc3)cc2-c2ccc3c(c2)OCO3)s1,> 100,> 100,> 100,> 100,> 100,,,> 100,> 100,> 100,,5.07,> 100,,> 100,
CS(=O)(=O)c1nc(N)nc2nc[nH]c12,> 100,> 100,> 100,> 100,> 100,> 100,> 100,> 100,> 100,> 100,> 100,> 100,> 100,,,
O=C(O)C(Cc1cccs1)NC(=O)C(F)(F)F (configuration not stated),,> 100,> 100,> 100,> 100,> 100,> 100,> 100,> 100,> 100,> 100,> 100,> 100,,> 100,
Cc1nnc(Nc2ccc(Cl)cc2)o1,> 10,> 10,> 10,> 10,> 10,> 10,> 10,> 10,> 10,> 10,> 10,> 10,> 10,,> 10,
CN(C)CCOc1cc2c(c3ccccc13)-c1ccccc1C2=O,,4.68,19.3,5.69,3.87,8.39,2.53,3.17,5.3,2.97,3.44,6.31,3.15,,5.6,
CC1(C)S[C@@H]2[C@H](NC(=O)CCC[C@@H](N)C(=O)O)C(=O)N2[C@H]1C(=O)O,,> 50,> 50,> 50,> 31.6,> 50,> 50,> 50,> 50,> 50,> 50,> 50,> 50,,> 50,
CC1=CC(C)C(C)N(CCNC(=O)Nc2ccccc2)c2ccccc21 (configuration not stated),63.7,61.1,66,72.9,83.6,85.2,24.3,42.7,40.3,49.4,56.2,49.6,98.6,,50.3,
O=C1O/C(=C\c2ccc(O)c(Br)c2)C(c2ccc(O)cc2)=C1Cl,> 100,> 100,77.7,,> 100,> 100,> 100,> 100,84.4,> 100,> 100,> 100,> 100,,49.5,
O=[N+]([O-])C(/C(Cl)=C(/Cl)N1CCCCC1)=C1\NCCO1,> 100,> 100,> 100,> 100,> 100,> 100,,> 100,,> 100,> 100,> 100,> 100,> 100,> 100,
CC(=O)N1NC(c2ccccc2)=CC(=O)/C1=C/C(=O)c1ccccc1,> 100,> 100,> 100,> 100,,> 100,> 100,> 100,83,> 100,> 100,> 100,> 100,,> 100,
CCC1(O)CC(OC2CC(N(C)C)C(OC3CC(O)C(OC4OC(C)C(=O)C=C4N)C(C)O3)C(C)O2)c2c(O)c3c(c(O)c2C1C(=O)OC)C(=O)c1cccc(O)c1C3=O (configuration not stated),,0.118,0.0129,0.0806,0.0845,0.976,0.613,,,0.0375,0.0272,,,,1.4,
CCOC(=O)Cn1c(=O)c2nc(SC)sc2n(-c2ccc(C)cc2)c1=S,> 100,> 100,> 100,69.6,> 100,54.1,> 100,> 100,61.1,> 100,96.8,> 100,> 100,,> 100,
COc1cc(-c2c[nH]c3ccccc23)nc(-c2c[nH]c3ccccc23)n1,8.46,13,6.58,,20.3,21,16.5,20.9,,18.6,16.2,20.7,18.1,38.4,14.9,
